From publication PMC11455950, “Effects of SZV-2649, a new multiple ion channel inhibitor mexiletine analogue” (Scientific Reports, 2024)
“And” between values parts separate entries of the source, which are not always exact repeats. Identical values can stand only once.

System: anesthetized dogs
Assay: Atrial fibrillation induced by carbachol infusion and burst stimulation in anesthetized dogs
Type: in vivo, dog
Parameters: key to AF converted to SR? / AF reinduced?: N, response not observed; Y, response observed
Description: The effect of SZV-2649 was further investigated in carbachol-infused and programmed electrical stimulation-induced (i.e. 800/min atrial burst stimulation) acute atrial fibillation model in anesthetized dogs.
In the atrial fibrillation experiments, at least 5–6 dogs for control and test groups, (respectively) were used. Following 0.5 µg/kg sufentanyl premedication and […] i.v. pentobarbital anaesthesia induction, left thoracotomy was performed on all animals. Dogs were endotracheally intubated and mechanically ventilated (UGO Basile respirator; Biological Research Apparatus, Italy) Physiological parameters (non-invasive blood pressure, SpO2, ECG) were continuously monitored during surgery and experiments (InnoCare-VET Patient Care Monitor; Budapest, Hungary). The ECGs were recorded using precordial leads and were digitized and stored on a computer for off-line analysis using National Instruments data acquisition hardware (National Instruments, Austin, Texas, USA) and SPEL Advanced Haemosys software (version 3.2, MDE Heidelberg GmbH, Germany). Under pentobarbital anaesthesia, two pacemaker electrodes (Biotronik Solia S 60; Biotronik Ltd., Hungary) were positioned epicardially into the left atrial appendage and apex of the left ventricle, respectively, and electrodes were connected to pacemakers (Effecta D; Biotronik Hungary Ltd., Hungary). Pacemakers were programmed in VVI mode using Biotronik IC: 4808 A-Renamic programmer to prevent the potentially bradycardic effect of carbachol leading to hemodynamic instability. Atrial and ventricular thresholds were measured before AF induction in all animals. Ventricular and atrial pacing were set to three times the measured threshold. AF inducibility were tested in both groups using a control set (25 times) of 10-second-long rapid atrial bursts (800 beats/min, at threefold threshold). Following 25 atrial burst stimuli, 2 × 2 µg/kg loading dose of intravenous carbachol was administered followed by an 8 µg/kg/h maintenance dose. Atrial fibrillation was induced using 10-second-long atrial burst stimuli in the presence of carbachol in both groups of dogs. […] In these experiments, we investigated whether AF was converted to SR by the test drug(s). All intravenous infusions were performed using a programmable infusion pump (Terufusion TE-3; Terumo Europe, Leuven, Belgium).

[1] = i.v. 10 mg/kg, individual dogs, carbachol + burst, 10 mg/kg

CC(N)COc1c(I)cc(C#N)cc1I.Cl (stereo not shown) [SZV-2649, 4-(2-aminopropoxy)-3,5-diiodobenzonitrile hydrochloride]
AF converted to SR? (i.v. 10 mg/kg, individual dogs, carbachol + burst): Y
AF converted to SR? (time printed in cell) [1]: 79 s and 175 s and 64 s and 286 s and 84 s and 194 s
AF reinduced (number of the 25 burst stimuli) [1]: 0/25 and 1/25 and 2/25
AF reinduced? [1]: N and Y (2×)
Atrial fibrillation reinduced, share of burst stimuli (i.v. 10 mg/kg, whole group): 2%
Times atrial fibrillation was reinduced by the 25 burst stimuli delivered in each animal (i.v. 10 mg/kg, whole group): 3 times
Experimental animals in which atrial fibrillation was converted to sinus rhythm (intravenous bolus 10 mg/kg): 100%
